# In patent publication US10842845B2, “Oxytocin improves treatment of obstructive sleep apnea” (THE GEORGE WASHINGTON UNIVERSITY, priority 2014, dated 2020):
# Biological target: T1, DREADDs receptors on PVN OXT neurons (Homo sapiens, UniProt P20309, A239G/Y149C)
# T1 construct: mCherry (C); host or cells: PVN oxytocin neurons of Sprague-Dawley rats, in vivo, transduced with AAV2-hSyn-DIO-hM3D(Gq)-mCherry and rAAV1-OXT-Cre
# Test: MAP over 21 days of CIH/H exposure with daily PVN OXT neuron activation (daily CNO)
# Format: in vivo, Sprague-Dawley rats
# Details: n=8
# From the text: To record blood pressure and heart rate, male Sprague-Dawley rats, 3-4 weeks of age, were anesthetized using isoflurane (2-4%) and a HD-XII pressure transmitter was implanted (Data Sciences International, St Paul, Minn., USA) with its cathether inserted into the abdominal aorta to record pressure and EKG leads were attached subcutaneously to obtain EKG recordings and heart rate. All rats with telemetry devices were allowed 7-14 days to recover from transmitter implantation surgery before any measurements were recorded. Blood pressure and heart rate were recorded via radio-frequency signals obtained through the Ponemah data acquisition system (Data Sciences International). Baseline recordings of blood pressure and heart rate were obtained for 3 days prior to CIH/H exposure. Prior to, and during, the 28 day CIH/H exposure period daily baseline recordings of blood pressure and heart rate were recorded.
# Animals were exposed to repetitive cycles of 3 minutes of mild H/H (6% O2+5% CO2+89%, N2) followed by 3 minutes of normoxia (21% O2+79% N2), repeated for 10 times per hour, 8 hr/day, for 3 or 4 weeks. The animals were exposed to CIH/H for 8 hours during light phase and to normal air during the remaining 16 hr. Unexposed animals that were exposed to normal air (21% O2+79% N2), were placed adjacent to the chambers during the exposure period to undergo similar handling, general lab conditions, and background noise as the CIH/H group.
# 1-2 weeks after telemetry implantation, DREADDs receptors on PVN OXT neurons were activated daily by intraperitoneal (IP) injection of clozapine-n-oxide (CNO, 1.0 mg/kg). To investigate the effects of CNO on resting BP and HR in both DREADDs-expressing and sham animals, 3 days prior to CIH/H exposure (control days) baseline BP and HR values were recorded for a 20 min period before CNO injection. Animals from each group then received an IP injection of CNO, BP and HR were recorded for 1 hr, and the animals then underwent exposure to air for 8 hr to achieve acclimation to the chambers. During the 21 days of CIH/H exposure, baseline recordings of BP and HR were obtained before CNO injection, recorded for 1 hr post CNO injection, and for the entire duration of OHM exposure.
# To examine the effects of CNO on and the chronic changes to mean arterial blood pressure (MAP) over the 21 days of OHM exposure, values were recorded before and after CNO injection on control days prior to CIH exposures, and days 1, 3, 6, 9, 12, 15, 18, and 21 of CIH/H. Changes within the DREADDs-expressing animals and the sham animals were statistically analyzed by one-way ANOVA with repeated-measures followed by Bonferroni's multiple comparison test. […]
# T1 sequence (P20309 whole entry Y149C/A239G, the tested form may be a part): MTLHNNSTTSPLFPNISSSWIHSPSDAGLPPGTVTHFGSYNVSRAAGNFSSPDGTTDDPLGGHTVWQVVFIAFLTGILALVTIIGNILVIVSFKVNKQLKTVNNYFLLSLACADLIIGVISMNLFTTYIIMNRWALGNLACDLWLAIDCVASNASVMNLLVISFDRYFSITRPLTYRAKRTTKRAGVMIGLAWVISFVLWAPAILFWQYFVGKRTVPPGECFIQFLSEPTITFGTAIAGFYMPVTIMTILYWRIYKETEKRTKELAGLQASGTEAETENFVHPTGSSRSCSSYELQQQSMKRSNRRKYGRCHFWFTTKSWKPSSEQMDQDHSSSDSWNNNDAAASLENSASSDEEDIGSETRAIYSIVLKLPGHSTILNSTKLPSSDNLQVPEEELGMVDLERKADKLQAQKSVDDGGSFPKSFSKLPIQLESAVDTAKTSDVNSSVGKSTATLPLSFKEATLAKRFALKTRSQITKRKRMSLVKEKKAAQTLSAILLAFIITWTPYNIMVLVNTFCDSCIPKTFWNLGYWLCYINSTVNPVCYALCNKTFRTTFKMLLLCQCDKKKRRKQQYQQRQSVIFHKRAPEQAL
compound,measurement,setting,value
"C[N+]1([O-])CCN(C2=Nc3cc(Cl)ccc3Nc3ccccc32)CC1 [CNO, clozapine-n-oxide]","MAP in DREADDs-expressing group, Day 12","Day 12 of CIH/H, sham group 117±4.1 mmHg",105±2.6 mmHg
same,"MAP in DREADDs-expressing group, Day 15","Day 15 of CIH/H, sham group 118±2.6 mmHg",105±3.1 mmHg
same,"MAP in DREADDs-expressing group, Day 18","Day 18 of CIH/H, sham group 122±1.1 mmHg",104±2.9 mmHg
same,"MAP in DREADDs-expressing group, Day 21","Day 21 of CIH/H, 104±2.6 mmHg on control days, sham group 120±0.5 mmHg",103±3.0 mmHg
